Assay results published in a melting point compilation (Tetko et al.; mined from patent text by program, amines drawn as free bases though some values may be those of a salt).

Row | SMILES | melting point [°C]
1 | C[Si](C)(C)c1cc(C(=O)O)cc([Si](C)(C)C)c1 | > 300
2 | COc1ccccc1[C@H](c1cccc2ccccc12)[C@@](C)(C#N)C(=O)N1CCN(c2ccc(Cl)cc2)CC1 | 178 to 180
3 | c1ccc2c(c1)ncc1nc(C3CCCC3)[nH]c12 | 192
4 | O=C(Nc1cnc2ccccc2c1)OC1CN2CCC1CC2 (stereo not given) | 135 to 137
5 | Cc1ccccc1NC(=O)c1ccc(C(=O)N2Cc3ccccc3Cc3ccccc32)cc1 | 214 to 216
6 | CC(C)(C)c1ccc(CCCCC(O)C2CCCCC2)cc1NC(=O)CC1c2ccccc2Oc2ccccc21 (stereo not given) | 147 to 148
7 | O=Cc1ccc(OCCc2coc(-c3ccccc3)n2)cc1 | 92 to 97
8 | CCC(=O)NC1C=CC(CO)C1 (stereo not given) | 67 to 68
9 | O=C1c2ccccc2CN1CCCSc1ccncc1 | 73 to 74.5
10 | O=C(O)CN1C(=O)C(=C2CCCCC2)SC1=S | 196 to 201
11 | COc1nc(C)c(C)cc1NC(=S)N1CCN(c2cc(C)cc(C)c2)CC1 | 192 to 193
12 | COC(=O)C(=NO)C(=O)N1CCC(c2ccc(OC)c(OC3CCCC3)c2)CC1 | 159 to 160
13 | O=S(=O)(Nc1ccc(Cl)nn1)c1ccccc1-c1ccccc1 | 196 to 198
14 | O=C(O)[C@@H]1C[C@@H](O)CN1CCO | 202 to 204
15 | Fc1cccc(Nc2cc(-c3ccnc(NC4CCOCC4)n3)ccn2)c1 | 190 to 192
16 | CCCC1=NN(c2ccc(Br)cc2)C(=O)C1=CNc1ccccc1CC | 127
17 | O=Cc1cccc(Oc2ccccc2)c1F | 75 to 77
18 | FC(F)(F)c1ccc(NC(=S)Nc2cc(C(F)(F)F)nc(C(F)(F)F)c2)cc1 | 125 to 132
19 | Cc1nc2c(OCc3ccccc3)cc(Br)cn2c1C | 151 to 153
20 | C[C@@H](CSC(=O)c1ccccc1)C(=O)N1C(=O)N(C)C[C@H]1C(=O)O | 162
21 | CCCCN(CCCC)c1ccc(C=C(S(C)(=O)=O)S(C)(=O)=O)cc1 | 114 to 115
22 | COc1cccc(C2Nn3cc(-c4cc(-c5ccc(Cl)cc5Cl)no4)nc3S2)c1 (stereo not given) | 195 to 198
23 | CNC1=NS(=O)N=C1NCCSCc1ccc(CN(C)C)s1 (stereo not given) | 98.5 to 102
24 | CCN(C)C(=O)c1ccc(N2CCN(Cc3cnc4c(c3)NC(=O)[C@@H]3CCCN43)CC2)cc1 | 91.9
25 | CCOC(=O)c1c(C)noc1NS(=O)(=O)c1ccccc1-c1ccc(CC(C)C)cc1 | 133 to 134

Row | SMILES | melting point [°C]
26 | COc1cc(CSc2nc3cnccc3[nH]2)cc(OC)c1 | 177 to 179
27 | COc1cc2c(cc1OC)[C@@H]1CCCC[C@@H]1N=C2c1ccc(N)cc1 (racemic) | 160 to 161
28 | CN1C(=O)C(F)N=C(c2ccccc2Cl)c2ccc(Cl)cc21 (stereo not given) | 204 to 205
29 | COc1ccc(N2CCN(c3c(C)c(C(C)O)c4c(c3C)C(c3ccc(C)cc3)C(C)(C)O4)CC2)cc1 (stereo not given) | 149 to 151
30 | Fc1ccccc1Cn1c(-c2ccc3c(c2)OCO3)nc2ccccc21 | 149 to 150
31 | CCOC(=O)c1cc2c(C(F)(F)F)ccc3c2n1CCN3C | 91 to 92
32 | Cc1ccc2c(c1)cc(Cc1ccc(C(=O)O)cc1)n2S(=O)(=O)c1cccc(C(C)(C)C)c1 | 161
33 | Cc1cnc2nc(C(F)(F)F)[nH]c(=O)c2c1 | 270 to 272
34 | O=C(O)c1cc(Oc2c(Cl)cc(Cl)cc2Cl)ccc1[N+](=O)[O-] | 192
35 | CC1=C(CC(=O)O)c2cc(F)c(F)cc2C1=Cc1ccc(S(C)=O)cc1 (stereo not given) | 200 to 210
36 | CC1(CSc2ccccc2)COC2(CCCCCCCCCCC2)OO1 (stereo not given) | 89
37 | CN1C(=O)C(C)(C)N=C(c2ccccc2F)c2cc(NC(=O)C(C)(C)N)ccc21 | 250
38 | CCN(CC)C(=O)COc1cc(-c2ccccc2)cc2ccccc12 | 82
39 | COc1ccc(-c2cncc(C#N)c2Nc2ccc3[nH]ccc3c2)cc1Br | 148 to 150
40 | COc1cc2c(cc1Cl)CCNC[C@H]2c1ccccc1 | 81 to 82
41 | CO/C(=C\c1ccc(OCCc2nc(-c3ccccc3)oc2C)c2ccsc12)C(=O)O | 189 to 190
42 | CN(C)C(=O)Nc1ccc(CN2OCC(C)(C)C2=O)c(Cl)c1 | 145 to 147
43 | C/C=C\Cn1c(C(=O)c2cc(C)cc(C)c2)c(CC)c(=O)[nH]c1=O | 199 to 200
44 | Cc1oc(-c2ccc(C(N)=O)cc2)nc1CCOc1ccc(OC(C)(C)C(=O)O)cc1 | 126 to 127
45 | CC1(C)C2CCC1(CCBr)CC2 | 68 to 71
46 | CC(=O)Nc1ccccc1C(=O)N1CC2CC2(c2ccccc2)C1 (stereo not given) | 124 to 127
47 | Cc1cn(Cc2ccccc2)c(=O)n(CC2(CO)CC2)c1=O | 81.5
48 | Cc1nc2ccc(C)c(Sc3ccncc3)c2c(=O)[nH]1 | 235 to 238
49 | COc1cc(OC)cc(-c2ncoc2-c2ccc(OC(F)(F)F)c(O)c2)c1 | 192 to 194
50 | CC(C)C(=O)NC(N)=S | 114 to 116

Row | SMILES | melting point [°C]
51 | O=c1[nH]c2ccc(S(=O)(=O)O)cc2[nH]c1=O | > 300
52 | Cc1ccccc1NC(=O)Nn1c(=O)c(=O)[nH]c2ccccc21 | > 300
53 | CCCCc1cn(Cc2ccc(-c3ccccc3C(=O)OC)cc2)c2cc(C(=O)N3CCCC3)ccc2c1=O | 191
54 | O=C(O)CC1CN(Cc2ccc(Cl)c(Cc3ccccc3)c2Cl)C(=O)N(c2ccc(Br)cc2)C1 (stereo not given) | 174 to 176
55 | CN1CCC(OC2c3ccccc3CCn3c2nc(I)c3C(N)=O)CC1 (stereo not given) | 85
56 | CCOC(=O)C(C)(C)Oc1ccc(CNc2ccccn2)cc1 | 78 to 79
57 | CC(=O)NC1Cc2ccc(S(=O)(=O)Cl)cc2C1 (stereo not given) | 237 to 239
58 | O=C(Cn1ncc(-c2ccccc2)c1-c1ccccc1)NCCCO | 138 to 139
59 | COc1ccc2c(c1)C(=O)c1c-2n(CCCCl)c(=O)c2ccccc12 | 195 to 198
60 | COC(=O)CCCc1cc2cc(Cl)ccc2n1S(=O)(=O)c1ccc2ncsc2c1 | 121 to 123
61 | CC(Nc1ccc(F)c(F)c1F)C(=O)O (stereo not given) | 114 to 119
62 | O=S(=O)(CC(F)(F)F)Nc1ccc(N2CCN(c3ccc(OCC(O)(Cn4cncn4)c4ccc(Cl)cc4Cl)cc3)CC2)cc1 (stereo not given) | 74 to 75
63 | CN(C)C(=O)c1cc(N)cc(C(F)(F)F)c1 | 154
64 | CC(C)Cn1c(C(=O)OC(C)(C)C)c(O)c2cc(OCc3ccccc3)ccc2c1=O | 133 to 134
65 | CN(SC(C)(C)C)C(=O)Nc1ccc(Cl)c(Cl)c1 | 127
66 | CC(=Cc1ccc(N(C)C)cc1)C(=O)O | 190 to 194
67 | CN(C)c1ccc(C(=O)c2ccc(OCCO)cc2)cc1 | 142 to 143
68 | O=[N+]([O-])c1ccc2nc(-c3ccccc3)oc2n1 | 219 to 220
69 | O=C(Nc1cccc([N+](=O)[O-])c1)C(=O)N1CCC(Cc2ccc(F)cc2)CC1 | 135 to 138
70 | O=C(O)CCCc1cc2cc(Cl)ccc2n1S(=O)(=O)c1ccc(N2CCOCC2)nc1 | 78 to 82
71 | CC(=O)OCc1cc(=O)c(Oc2ccc(F)cc2)c(-c2ccc(S(C)(=O)=O)cc2)o1 | 180
72 | CC(=O)O[C@]1(C)CC[C@@H]2C[C@H]1OO[C@@]2(C)CS(=O)(=O)c1ccccc1 | 98 to 99
73 | CCCCCCOc1ccc2c(CBr)c(OCCCCCC)ccc2c1CBr | 110 to 112
74 | CC(C)[C@H](NC(=O)/C=C/c1cccnc1)C(=O)N[C@@H](Cc1ccccc1)[C@@H](O)[C@H](O)[C@H](Cc1ccccc1)NC(=O)[C@@H](NC(=O)/C=C/c1cccnc1)C(C)C | 285 to 289
75 | CCCCNC(=O)n1c(=S)[nH]c2ccccc21 | 179 to 180

Row | SMILES | melting point [°C]
76 | Cc1cc(-c2ccc(C(F)(F)F)cc2)cc(-c2ccnc(-c3cccc(NS(C)(=O)=O)c3)c2)n1 | 196
77 | CN(CCc1ccccc1)C(=O)Cn1cc(C=O)c2c(OCc3ccccc3)cccc21 | 120 to 122
78 | Cc1noc(NS(=O)(=O)c2ccccc2-c2ccc(-c3ncco3)cc2Cn2cccn2)c1C | 140 to 146
79 | Cn1cnc2c(=O)[nH]c(N)nc21 | > 300
80 | O=C(CCC(=O)N1CCC(N2Cc3ccccc3NC2=O)CC1)c1ccc(Cl)c(Cl)c1 | 224 to 226
81 | CC(=NNCCCC(C)C)C(=O)O | 118 to 125
82 | CCNC(=O)c1sc(C=O)cc1[Si](C)(C)C | 62 to 65
83 | O=C1CC(c2ccccc2)Oc2cc(OCCn3ccnc3)ccc21 (stereo not given) | 139 to 140
84 | Cc1nc(-c2ccc(-c3cnc4[nH]c(=O)n(CCC5CCOCC5)c4n3)cc2)n[nH]1 | 290 to 292
85 | Cn1c(CC#N)ccc1C(=O)c1ccc(Cl)cc1Cl | 129 to 130
86 | NCCN1CCC(NC(=O)c2cc(Cl)c(N)c3c2OCCC3)CC1 | 130
87 | Nc1nc(CCc2ccccc2)nc2oc(-c3ccco3)nc12 | 206 to 208
88 | COc1ccc2c(c1)C(NC(=O)OCc1ccccc1)C(=O)N2c1ccc(F)cc1 (stereo not given) | 154 to 156
89 | Cc1cc(C(=O)NCc2cccc3c2C(=O)N(C2CCC(=O)NC2=O)C3=O)no1 (stereo not given) | 207 to 209
90 | CCOC(=O)c1c(/C=C/c2nccn2C)nc2cc(OC)c(OC)cc2c1-c1ccc(OC)c(OC)c1 | 206 to 208
91 | CC(C)N[C@@H](Cc1ccccc1)C(=O)N1CCN(C(c2ccc(F)cc2)c2ccc(F)cc2)CC1 | 45 to 58
92 | O=C(c1ccc(OCCN2CCCC2)cc1)c1c(-c2ccc(Cl)cc2)sc2ccccc12 | 97 to 98
93 | CCc1ccccc1NC(=O)C(C#N)=CN(C)C | 128 to 130
94 | CN(C)N=C(N)Nc1c(Cl)cccc1Cl | > 280
95 | c1ccc(-c2ccc(-c3cc4ccccc4[nH]3)cc2)cc1 | 301
96 | CC(=O)C(=Cc1ccc(O)cc1)C(C)=O | 123 to 127
97 | CCCCCCCCCCCCCCc1c[nH]c(C=O)c1 | 70 to 71
98 | CC(C)Cn1c(CN)c(-c2ccccc2)c2cc(Br)ccc2c1=O | 129 to 130
99 | CS(=O)(=O)Nc1cc(C(c2cc(F)ccc2F)S(=O)(=O)c2ccc(Cl)cc2)c(Cl)cn1 (stereo not given) | 220 to 222
100 | CC12CCC(=O)NC1CCc1cc(-c3cccc([N+](=O)[O-])c3)ccc12 (single isomer, unassigned; (+)) | 223 to 225
